Results as given in PubChem BioAssay AID1259407 (Chemical Carcinogenesis Research Information System (CCRIS), 2018).
Calls of active or inactive are those of the source. The rule behind the calls is not given here.

System: CCRIS mutagenicity, Ames/micronucleus/aberration tests
Assay: CCRIS mutagenicity studies
Conditions: Test System: AMES SALMONELLA TYPHIMURIUM

Measured: mutagenic call

C[C@@H]1O[C@@H]1C
active: Strain/Indicator: TA100, Metabolic Activation: NONE, Method: FLASK VAPORIZATION active; positive | Strain/Indicator: TA100, Metabolic Activation: NONE, Method: STANDARD PLATE active; positive | Strain/Indicator: TA100, Metabolic Activation: RAT, LIVER, S-9, AROCLOR 1254, Method: FLASK VAPORIZATION active; positive | Strain/Indicator: TA1535, Metabolic Activation: NONE, Method: FLASK VAPORIZATION active; positive | Strain/Indicator: TA1535, Metabolic Activation: NONE, Method: STANDARD PLATE active; positive | Strain/Indicator: TA1535, Metabolic Activation: RAT, LIVER, S-9, AROCLOR 1254, Method: FLASK VAPORIZATION active; positive
